In PubChem BioAssay AID330 (DTP/NCI, 2004):
“And” between values parts separate entries of the source, which are not always exact repeats. Equal entries are not always repeated. Inconclusive results and toxic doses are left out.

Tested on: P388 leukemia ip, CD2F1 mice, survival T/C
Experiment: NCI In Vivo Anticancer Drug Screen. Data for tumor model P388 Leukemia (intraperitoneal) in CD2F1 (CDF1) mice
Conditions: endpoint: median survival time, higher = longer survival
Procedure, shortened: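 Mice carrying the transplanted tumor received test compound or vehicle. Survival was recorded in each group, and the value is the treated-group measurement divided by that of the vehicle-treated control group.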

[1] = dose: 6.25 mg/kg/injection, schedule: Q01DX009 (ip), vehicle: saline with Tween-80
[2] = dose: 12.5 mg/kg/injection, schedule: Q01DX009 (ip), vehicle: saline with Tween-80
[3] = dose: 100.0 mg/kg/injection, schedule: Q01DX009 (ip), vehicle: saline
[4] = dose: 200.0 mg/kg/injection, schedule: Q01DX009 (ip), vehicle: saline
[5] = dose: 50.0 mg/kg/injection, schedule: Q01DX005 (ip), vehicle: Klucel (hydroxypropylcellulose) (HPC)
[6] = dose: 100.0 mg/kg/injection, schedule: Q01DX005 (ip), vehicle: Klucel (hydroxypropylcellulose) (HPC)
[7] = dose: 50.0 mg/kg/injection, schedule: Q01DX009 (ip), vehicle: saline with Tween-80
[8] = dose: 100.0 mg/kg/injection, schedule: Q01DX009 (ip), vehicle: saline with Tween-80
[9] = dose: 200.0 mg/kg/injection, schedule: Q01DX009 (ip), vehicle: saline with Tween-80
[10] = dose: 50.0 mg/kg/injection, schedule: Q01DX009 (ip), vehicle: saline
[11] = dose: 60.0 mg/kg/injection, schedule: Q01DX005 (ip), vehicle: saline with Tween-80
[12] = dose: 120.0 mg/kg/injection, schedule: Q01DX005 (ip), vehicle: saline with Tween-80
[13] = dose: 240.0 mg/kg/injection, schedule: Q01DX005 (ip), vehicle: saline with Tween-80
[14] = dose: 3.12 mg/kg/injection, schedule: Q01DX005 (ip), vehicle: Klucel (hydroxypropylcellulose) (HPC)
[15] = dose: 6.25 mg/kg/injection, schedule: Q01DX005 (ip), vehicle: Klucel (hydroxypropylcellulose) (HPC)
[16] = dose: 12.5 mg/kg/injection, schedule: Q01DX009 (ip), vehicle: water
[17] = dose: 25.0 mg/kg/injection, schedule: Q01DX009 (ip), vehicle: water
[18] = dose: 50.0 mg/kg/injection, schedule: Q01DX009 (ip), vehicle: water
[19] = dose: 100.0 mg/kg/injection, schedule: Q01DX009 (ip), vehicle: water
[20] = dose: 200.0 mg/kg/injection, schedule: Q01DX009 (ip), vehicle: water
[21] = dose: 50.0 mg/kg/injection, schedule: Q01DX005 (ip), vehicle: saline with Tween-80
[22] = dose: 100.0 mg/kg/injection, schedule: Q01DX005 (ip), vehicle: saline with Tween-80
[23] = dose: 200.0 mg/kg/injection, schedule: Q01DX005 (ip), vehicle: saline with Tween-80
[24] = dose: 200.0 mg/kg/injection, schedule: Q01DX005 (ip), vehicle: Klucel (hydroxypropylcellulose) (HPC)

## O=C1c2ccccc2C(=O)N1Cc1ccccc1[N+](=O)[O-]
[1]
  T/C: 95 % of control
[2]
  T/C: 88 % of control
dose: 25.0 mg/kg/injection, schedule: Q01DX009 (ip), vehicle: saline with Tween-80
  T/C: 89 % of control
[3]
  T/C: 98 % of control
[4]
  T/C: 102 % of control

## N#CSC/C(=N\Nc1ccc([N+](=O)[O-])cc1[N+](=O)[O-])c1ccccc1
dose: 50.0 mg/kg/injection, schedule: Q04DX003 (ip), vehicle: saline with Tween-80
  T/C: 100 % of control
dose: 100.0 mg/kg/injection, schedule: Q04DX003 (ip), vehicle: saline with Tween-80
  T/C: 95 % of control
dose: 200.0 mg/kg/injection, schedule: Q04DX003 (ip), vehicle: saline with Tween-80
  T/C: 113 % of control

## CCCCCCCC/C=C\CCCCCCCC(=O)OCC(=O)OC
dose: 50.0 mg/kg/injection, schedule: Q01DX009 (ip), vehicle: Klucel (hydroxypropylcellulose) (HPC)
  T/C: 98 % of control
dose: 100.0 mg/kg/injection, schedule: Q01DX009 (ip), vehicle: Klucel (hydroxypropylcellulose) (HPC)
  T/C: 104 % of control
dose: 200.0 mg/kg/injection, schedule: Q01DX009 (ip), vehicle: Klucel (hydroxypropylcellulose) (HPC)
  T/C: 110 % of control

## CC1(C)[S][Sn]2[NH]C1C(=O)[O]2 (stereo not given)
[5]
  T/C: 98 % of control
[6]
  T/C: 94 % of control

## CC1=CCC2(C)CCC(C(C)C)C2(O)CC1 (stereo not given)
dose: 50.0 mg/kg/injection, schedule: Q04DX003 (ip), vehicle: saline
  T/C: 104 % of control
dose: 100.0 mg/kg/injection, schedule: Q04DX003 (ip), vehicle: saline
  T/C: 90 % of control
dose: 200.0 mg/kg/injection, schedule: Q04DX003 (ip), vehicle: saline
  T/C: 100 % of control

## CCOC(=O)c1ccc(NC(=O)OCc2ccco2)cc1
dose: 60.0 mg/kg/injection, schedule: Q01DX005 (ip), vehicle: Klucel (hydroxypropylcellulose) (HPC)
  T/C: 89 % of control
dose: 120.0 mg/kg/injection, schedule: Q01DX005 (ip), vehicle: Klucel (hydroxypropylcellulose) (HPC)
  T/C: 92 % of control
dose: 240.0 mg/kg/injection, schedule: Q01DX005 (ip), vehicle: Klucel (hydroxypropylcellulose) (HPC)
  T/C: 91 % of control

## CC(c1ccccc1)[c-]1[c-][c-][c-][c-]1.[Cl][Zr][Cl].[c-]1[c-][c-][cH-][c-]1 (stereo not given)
dose: 3.12 mg/kg/injection, schedule: Q01DX009 (ip), vehicle: saline with Tween-80
  T/C: 93 % of control
[1]
  T/C: 104 % of control
[2]
  T/C: 104 % of control
[7]
  T/C: 95 % of control

## Cc1ccc(NC(=O)Oc2cc(C)c(I)cc2C)cc1Cl
[7]
  T/C: 112 % of control
[8]
  T/C: 112 % of control
[9]
  T/C: 95 % of control

## CS/C(=C\C=Nc1ccccc1)c1ccccc1
dose: 100.0 mg/kg/injection, schedule: Q04DX002 (ip), vehicle: saline with Tween-80
  T/C: 103 % of control
dose: 200.0 mg/kg/injection, schedule: Q04DX002 (ip), vehicle: saline with Tween-80
  T/C: 100 % of control
dose: 400.0 mg/kg/injection, schedule: Q04DX002 (ip), vehicle: saline with Tween-80
  T/C: 109 % of control

## O=c1[nH]c(Cl)nc2n[nH]c(Br)c12
dose: 100.0 mg/kg/injection, schedule: Q01DX001 (ip), vehicle: saline with Tween-80
  T/C: 98 % of control
dose: 200.0 mg/kg/injection, schedule: Q01DX001 (ip), vehicle: saline with Tween-80
  T/C: 103 % of control

## O=c1oc(-c2ccc([N+](=O)[O-])cc2Cl)nc2ccccc12
[10]
  T/C: 106 % of control
[3]
  T/C: 105 % of control
[4]
  T/C: 106 % of control

## CCCC(C)C1(CC)C(=O)N(CCCl)C(=O)N(CCCl)C1=O (stereo not given)
[7]
  T/C: 93 % of control
[8]
  T/C: 99 % of control
[9]
  T/C: 93 % of control

## COc1ccc(C(O)c2cnc(C)n2Cc2ccccc2)cc1 (stereo not given)
[11]
  T/C: 99 % of control
[12]
  T/C: 100 % of control
[13]
  T/C: 94 % of control

## CCOC(=O)C(=O)Nc1oc(C)c(C)c1C#N
dose: 12.5 mg/kg/injection, schedule: Q01DX009 (ip), vehicle: saline + alcohol
  T/C: 100 % of control and 107 % of control and 118 % of control
dose: 25.0 mg/kg/injection, schedule: Q01DX009 (ip), vehicle: saline + alcohol
  T/C: 109 % of control and 116 % of control and 124 % of control
dose: 25.0 mg/kg/injection, schedule: Q04DX003 (ip), vehicle: saline + alcohol
  T/C: 115 % of control
dose: 50.0 mg/kg/injection, schedule: Q04DX003 (ip), vehicle: saline + alcohol
  T/C: 106 % of control
dose: 100.0 mg/kg/injection, schedule: Q01DX001 (ip), vehicle: saline + alcohol
  T/C: 95 % of control
dose: 100.0 mg/kg/injection, schedule: Q01DX009 (ip), vehicle: saline + alcohol
  T/C: 110 % of control and 93 % of control
dose: 100.0 mg/kg/injection, schedule: Q04DX003 (ip), vehicle: saline + alcohol
  T/C: 112 % of control
dose: 200.0 mg/kg/injection, schedule: Q01DX001 (ip), vehicle: saline + alcohol
  T/C: 96 % of control

## OCC(O)C(O)C(O)C(O)CO.[Cu+2].[Cu] (stereo not given)
[14]
  T/C: 88 % of control
[15]
  T/C: 92 % of control

## COP(=O)(N/N=C/C(=O)O)OC
[16]
  T/C: 104 % of control
[17]
  T/C: 103 % of control
[18]
  T/C: 101 % of control
[19]
  T/C: 96 % of control
[20]
  T/C: 95 % of control

## C1CNC(CCNCCSCCNCCC2=NCCN2)=N1
dose: 12.5 mg/kg/injection, schedule: Q01DX009 (ip), vehicle: saline
  T/C: 100 % of control
dose: 25.0 mg/kg/injection, schedule: Q01DX009 (ip), vehicle: saline
  T/C: 96 % of control
[10]
  T/C: 100 % of control

## OCC1CC12c1ccccc1-c1ccccc12 (stereo not given)
[11]
  T/C: 98 % of control
[12]
  T/C: 96 % of control
[13]
  T/C: 101 % of control

## CCC/C=C/C1SCC(=O)N1c1nncs1 (stereo not given)
[21]
  T/C: 102 % of control
[22]
  T/C: 103 % of control
[23]
  T/C: 117 % of control

## O=C(O)C1C2C(=O)N(CO)C(=O)C2C(C(=O)O)C2C3C(=O)N(CO)C(=O)C3C12 (stereo not given)
[16]
  T/C: 108 % of control
[17]
  T/C: 99 % of control
[18]
  T/C: 102 % of control and 105 % of control and 92 % of control
[19]
  T/C: 107 % of control and 117 % of control and 120 % of control
[20]
  T/C: 114 % of control and 120 % of control

## COc1ccc(OC)c(NC(=O)CCCC(=O)CC(=O)C(C)(C)C)c1
[11]
  T/C: 101 % of control
[12]
  T/C: 104 % of control
[13]
  T/C: 93 % of control

## O=[N+]([O-])c1ccc(CS(=O)(=O)c2cccs2)o1
dose: 50.0 mg/kg/injection, schedule: Q01DX009 (ip), vehicle: suspension in saline
  T/C: 106 % of control
dose: 100.0 mg/kg/injection, schedule: Q01DX009 (ip), vehicle: suspension in saline
  T/C: 100 % of control

## CNC(=O)OCc1c(COC(=O)NC)c(-c2c(F)cccc2F)n2c1CCC2
dose: 6.25 mg/kg/injection, schedule: Q01DX009 (ip), vehicle: water
  T/C: 166 % of control
dose: 12.5 mg/kg/injection, schedule: Q01DX009 (ip), vehicle: distilled water + Tween-80
  T/C: 155 % of control
dose: 25.0 mg/kg/injection, schedule: Q01DX009 (ip), vehicle: distilled water + Tween-80
  T/C: 108 % of control
[17]
  T/C: 88 % of control

## CC(C)(CO)NCCNC(C)(C)CO
[21]
  T/C: 98 % of control
[22]
  T/C: 90 % of control
[23]
  T/C: 100 % of control

## COc1cc(-n2c(C)nc3ncn(-c4ccccc4)c3c2=O)cc(OC)c1OC
[5]
  T/C: 98 % of control
[6]
  T/C: 102 % of control
[24]
  T/C: 105 % of control

## O=C(NC(Cc1ccc(Br)cc1)C(=O)O)c1ccc(Br)cc1 (stereo not given)
[5]
  T/C: 104 % of control
[6]
  T/C: 101 % of control
[24]
  T/C: 104 % of control

## C[OH2+].[Cl][Cu+].[Cl][Cu+].[NH-]CCC([OH2+])CC[NH-]
dose: 1.56 mg/kg/injection, schedule: Q01DX005 (ip), vehicle: Klucel (hydroxypropylcellulose) (HPC)
  T/C: 96 % of control
[14]
  T/C: 103 % of control
[15]
  T/C: 106 % of control and 91 % of control
